pIC50: −log10 of the molar value. Like-named read-outs stand apart in the source and are kept apart here.
Columns and labels:
[1] = tested on: 5637 human bladder carcinoma cell line; assay: IC50 determination, MTS assay, 72 h (Example 2); assay type: cell-based; conditions: 72 hours of drug exposure
Protocol: The following agents were evaluated in combination with PM00104: gemcitabine (Gemzar®) and cisplatin. The human bladder carcinoma cell lines selected for this assay were the following: 5637 and UM-UC-3 cell lines. 5637 cell line was grown in RPMI 1640 medium supplemented with 10% FBS, 1.5 g/L sodium bicarbonate, 4.5 g/L glucose, 10 mM HEPES, 1 mM sodium pyruvate, and 2 mM L-glutamine. UM-UC-3 cell line was grown in MEM Eagle's medium supplemented with 10% FBS and 2 mM L-glutamine.
a. […] It was used the same methodology as those disclosed in Example 1.
IC50 values were calculated from an average of three to four assays for each of the test agents.

UM-UC-3 tumors = assay type: in vivo, mice; conditions: mg/kg/day: PM00104 0.90 IV, cisplatin 5 IP, gemcitabine 180 IP, paclitaxel 15 IP
Protocol: (§1) Female athymic nude mice (Harlan Sprague Dawley, Madison, Wis.) were utilized for all experiments. Animals were housed in ventilated rack caging with food and water ad libitum. The mice were acclimated for at least 5 days prior to tumor implantation with a tumor cell suspension.
The tumor model used in these studies was UM-UC-3 cell line, which was obtained from the ATCC (Manassas, Va.).
UM-UC-3 cells were grown in minimum essential medium (Eagle's) supplemented with 10% FBS, 1.5 g/L sodium bicarbonate, 0.1 mM non-essential amino acids, 1 mM sodium pyruvate, and 2 mM L-glutamine. Each animal was implanted SC on the right flank, using a trochar and 1 cc syringe, with 5×10^6 UM-UC-3 cells, from in vitro passage 17, in a 0.2 mL suspension of 50% Matrigel and 50% serum free medium, without antibiotics. Bacterial cultures were performed on aliquots of the cells prepared for implantation.
Treatments were initiated on DPI 15.
(§2) Tumor size measurements were recorded twice weekly from the treatment initiation until the termination of the study.
(§3) Mean, standard deviation and standard error of the mean were determined for tumor volume for all animal groups at all assessments. Student's t test was performed on tumor volumes at each measurement day, including at the end of the study, to determine whether there were any statistically significant differences between combination treatment groups and single monotherapy treatment groups.

Hs746T tumors = assay type: in vivo, mice; conditions: mg/kg/day: PM00104 0.90 IV, cisplatin 5 IP, paclitaxel 10 IP
Source text: as §1, with “suspension. The Vehicle Control group contained 11 mice, groups 2-4 contained 7 mice and the rest of groups contained 8 mice.” for “suspension.”
The tumor model used in these studies was Hs746T cell line, which was obtained from the ATCC (Manassas, Va.).
Hs746T cells were grown in DMEM supplemented with 10% FBS, 1.5 g/L sodium bicarbonate, 4.5 g/L glucose, and 4 mM L-glutamine. Each animal was implanted SC on the right flank, using a trochar, with 5×10^6 Hs746T cells, from in vitro passage 18, in a 0.2 mL suspension of 50% Matrigel and 50% serum free medium, without antibiotics. Bacterial cultures were performed on aliquots of the cells prepared for implantation.
(§4) Treatments were initiated on DPI 16.
as §2, §3

MRI-H-254 tumors = assay type: in vivo, mice
Protocol: Female athymic nude mice (Harlan Sprague Dawley, Madison, Wis.) were utilized for all experiments. Animals were housed in ventilated rack caging with food and water ad libitum. The mice were acclimated for at least 5 days prior to tumor implantation with tumor fragments.
as §4, §2, §3

[2] = tested on: A-549 (lung cancer) cell line; assay: IC50 determination, MIT (tetrazolium) assay, 72 h (Example 18); assay type: cell-based, human
Protocol: (§5) Before plating, cell cultures were trypsinized and cell number estimated using an automated flow cytometer.
(§6) Cells were harvested and seeded in 96 well microtiter plates at the appropriate cell density (5,000-10,000 cells) in 150 μL of media and incubated for 24 hours to allow the cells to attach before drug addition.
(§7) After the incubation period (72 hours), 50 μL of MIT solution was added to each microtiter well and incubated for further 8 hours at 37° C. The culture medium was then removed and 50 μl, of DMSO were added to dissolve the MIT crystals. Optical densities were read at 540 nm on spectrophotometer microplate reader.
(§8) IC50 values were calculated from an average of two to four assays for each of the test agents.

[3] = tested on: NCI-H460 (lung cancer) cell line; assay: as above; assay type: cell-based, human; conditions: NCI-H460, 72 hours of drug exposure
Protocol: as §5, §6, §7, §8

[4] = tested on: NCI-H23 (lung cancer) cell line; assay: as above; assay type: cell-based, human; conditions: NCI-H23, 72 hours of drug exposure
Protocol: NCI-H23 cells were grown in RPMI supplemented with 10% Fetal Bovine Serum (FBS), 1% penicillin/streptomycin and 2 mM L-glutamine.
as §5, §6, §7, §8

[5] = day 16, PM00104 0.90, cisplatin 3, irinotecan 10, paclitaxel 12.5 mg/kg/day
[6] = day 16, PM00104 0.90, cisplatin 5, irinotecan 18, paclitaxel 25 mg/kg/day
[7] = day 20, PM00104 0.90, cisplatin 3, irinotecan 10, paclitaxel 12.5 mg/kg/day
[8] = day 20, PM00104 0.90, cisplatin 5, irinotecan 18, paclitaxel 25 mg/kg/day
[9] = day 23, PM00104 0.90, cisplatin 3, irinotecan 10, paclitaxel 12.5 mg/kg/day
[10] = day 23, PM00104 0.90, cisplatin 5, irinotecan 18, paclitaxel 25 mg/kg/day
[11] = day 26, PM00104 0.90, cisplatin 3, irinotecan 10, paclitaxel 12.5 mg/kg/day
[12] = day 26, PM00104 0.90, cisplatin 5, irinotecan 18, paclitaxel 25 mg/kg/day
[13] = day 29, PM00104 0.90, cisplatin 3, irinotecan 10, paclitaxel 12.5 mg/kg/day
[14] = day 29, PM00104 0.90, cisplatin 5, irinotecan 18, paclitaxel 25 mg/kg/day
[15] = day 33, PM00104 0.90, cisplatin 3, irinotecan 10, paclitaxel 12.5 mg/kg/day
[16] = day 33, PM00104 0.90, cisplatin 5, irinotecan 18, paclitaxel 25 mg/kg/day
[17] = day 40, PM00104 0.90, cisplatin 3, irinotecan 10, paclitaxel 12.5 mg/kg/day
[18] = day 40, PM00104 0.90, cisplatin 5, irinotecan 18, paclitaxel 25 mg/kg/day
[19] = day 48, PM00104 0.90, cisplatin 3, irinotecan 10, paclitaxel 12.5 mg/kg/day
[20] = day 48, PM00104 0.90, cisplatin 5, irinotecan 18, paclitaxel 25 mg/kg/day

N.N.[Cl][Pt][Cl] [Cisplatin, cisplatin]
IC50 [1]: 2.4 µg/mL
% Inhibition (UM-UC-3 tumors; day 15): −2.2%
% T/C on day (UM-UC-3 tumors; day 15): 102.2%
% Inhibition (UM-UC-3 tumors; day 20): 23.0%
% T/C on day (UM-UC-3 tumors; day 20): 77.0%
% Inhibition (UM-UC-3 tumors; day 22): 24.2%
% T/C on day (UM-UC-3 tumors; day 22): 75.8%
% Inhibition (UM-UC-3 tumors; day 26): 38.2%
% T/C on day (UM-UC-3 tumors; day 26): 61.8%
% Inhibition (UM-UC-3 tumors; day 29): 34.0%
% T/C on day (UM-UC-3 tumors; day 29): 66.0%
% Inhibition (UM-UC-3 tumors; day 34): 55.3%
% T/C on day (UM-UC-3 tumors; day 34): 44.7%
% Inhibition (UM-UC-3 tumors; day 40): 36.2%
% T/C on day (UM-UC-3 tumors; day 40): 63.8%
% Inhibition (UM-UC-3 tumors; day 43): 33.0%
% T/C on day (UM-UC-3 tumors; day 43): 67.0%
% Inhibition (Hs746T tumors; day 16): 3.2%
% T/C on day (Hs746T tumors; day 16): 96.8%
% Inhibition (Hs746T tumors; day 20): 39.5%
% T/C on day (Hs746T tumors; day 20): 60.5%
% Inhibition (Hs746T tumors; day 23): 48.3%
% T/C on day (Hs746T tumors; day 23): 51.7%
% Inhibition (Hs746T tumors; day 26): 55.8%
% T/C on day (Hs746T tumors; day 26): 44.2%
% Inhibition (Hs746T tumors; day 29): 56.7%
% T/C on day (Hs746T tumors; day 29): 43.3%
% Inhibition (Hs746T tumors; day 33): 53.3%
% T/C on day (Hs746T tumors; day 33): 46.7%
% Inhibition (Hs746T tumors; day 36): 53.7%
% T/C on day (Hs746T tumors; day 36): 46.3%
% Inhibition (MRI-H-254 tumors; [5]): 1.6%
% T/C (MRI-H-254 tumors; [5]): 98.4%
% Inhibition (MRI-H-254 tumors; [6]): −0.5%
% T/C (MRI-H-254 tumors; [6]): 100.5%
% Inhibition (MRI-H-254 tumors; [7]): 6.6%
% T/C (MRI-H-254 tumors; [7]): 93.4%
% Inhibition (MRI-H-254 tumors; [8]): 2.2%
% T/C (MRI-H-254 tumors; [8]): 97.8%
% Inhibition (MRI-H-254 tumors; [9]): 17.0%
% T/C (MRI-H-254 tumors; [9]): 83.0%
% Inhibition (MRI-H-254 tumors; [10]): 24.7%
% T/C (MRI-H-254 tumors; [10]): 75.3%
% Inhibition (MRI-H-254 tumors; [11]): 18.5%
% T/C (MRI-H-254 tumors; [11]): 81.5%
% Inhibition (MRI-H-254 tumors; [12]): 40.1%
% T/C (MRI-H-254 tumors; [12]): 59.9%
% Inhibition (MRI-H-254 tumors; [13]): 27.0%
% T/C (MRI-H-254 tumors; [13]): 73.0%
% Inhibition (MRI-H-254 tumors; [14]): 45.7%
% T/C (MRI-H-254 tumors; [14]): 54.3%
% Inhibition (MRI-H-254 tumors; [15]): 31.4%
% T/C (MRI-H-254 tumors; [15]): 68.6%
% Inhibition (MRI-H-254 tumors; [16]): 60.5%
% T/C (MRI-H-254 tumors; [16]): 39.5%
% Inhibition (MRI-H-254 tumors; [17]): 44.7%
% T/C (MRI-H-254 tumors; [17]): 55.3%
% Inhibition (MRI-H-254 tumors; [18]): 76.2%
% T/C (MRI-H-254 tumors; [18]): 23.8%
% Inhibition (MRI-H-254 tumors; [19]): 50.8%
% T/C (MRI-H-254 tumors; [19]): 49.2%
% Inhibition (MRI-H-254 tumors; [20]): 82.9%
% T/C (MRI-H-254 tumors; [20]): 17.1%
pIC50 ([2]; A-549, 72 hours of drug exposure): 4.30
pIC50 [3]: 4.60
pIC50 [4]: 5.00

Nc1ccn([C@@H]2O[C@H](CO)[C@@H](O)C2(F)F)c(=O)n1 [Gemcitabine, gemcitabine]
IC50 ([1]; Homo sapiens, read-out: IC50): 0.019 µg/mL
pIC50 ([2]; Homo sapiens, A549, 72 h): 9.30
pIC50 ([3]; Homo sapiens): 9.00
pIC50 ([4]; Homo sapiens): 9.55

CC(=O)O[C@H]1C(=O)[C@@]2(C)[C@H]([C@H](OC(=O)c3ccccc3)[C@]3(O)C[C@H](OC(=O)[C@H](O)[C@@H](NC(=O)c4ccccc4)c4ccccc4)C(C)=C1C3(C)C)[C@]1(OC(C)=O)CO[C@@H]1C[C@@H]2O [paclitaxel]
% Inhibition (UM-UC-3 tumors; day 15): 1.3%
% T/C on day (UM-UC-3 tumors; day 15): 98.7%
% Inhibition (UM-UC-3 tumors; day 20): 46.9%
% T/C on day (UM-UC-3 tumors; day 20): 53.1%
% Inhibition (UM-UC-3 tumors; day 22): 54.0%
% T/C on day (UM-UC-3 tumors; day 22): 46.0%
% Inhibition (UM-UC-3 tumors; day 26): 61.4%
% Inhibition (UM-UC-3 tumors; day 29): 64.6%
% Inhibition (UM-UC-3 tumors; day 34): 60.5%
% Inhibition (UM-UC-3 tumors; day 40): 47.5%
% T/C on day (UM-UC-3 tumors; day 40): 52.5%
% Inhibition (UM-UC-3 tumors; day 43): 41.0%
% T/C on day (UM-UC-3 tumors; day 43): 59.0%
% Inhibition (Hs746T tumors; day 16): 3.6%
% T/C on day (Hs746T tumors; day 16): 96.4%
% Inhibition (Hs746T tumors; day 20): 36.7%
% T/C on day (Hs746T tumors; day 20): 63.3%
% Inhibition (Hs746T tumors; day 23): 52.3%
% T/C on day (Hs746T tumors; day 23): 47.7%
% Inhibition (Hs746T tumors; day 26): 65.3%
% Inhibition (Hs746T tumors; day 29): 78.6%
% T/C on day (Hs746T tumors; day 29): 21.4%
% Inhibition (Hs746T tumors; day 33): 76.8%
% T/C on day (Hs746T tumors; day 33): 23.2%
% Inhibition (Hs746T tumors; day 36): 69.9%
% T/C on day (Hs746T tumors; day 36): 30.1%
pIC50 ([2]; Homo sapiens, A549, 72 h): 7.33
pIC50 ([3]; Homo sapiens): 7.92
pIC50 ([4]; Homo sapiens): 7.33

Reference: US20110070232A1, “Combination Therapy with an Antitumor Alkaloid” (Pharma Mar, S.A., priority 2008, published 2011)
